Source: patent US20200002323A1, “COMPOUNDS” (GLAXOSMITHKLINE INTELLECTUAL PROPERTY DEVELOPMENT LIMITED, priority 2017, published 2020)

Each compound was assayed against T1, recombinant full length LRRK2 protein over-expressed in SH-SY5Y cells (Homo sapiens, UniProt Q5S007) (assay: Recombinant cellular LRRK2 AlphaScreen assay (LRRK2 Ser935 phosphorylation)). Details: human neuroblastoma SH-SY5Y cells over-expressing recombinant full length LRRK2, 60 minutes compound incubation, read-out: pIC50 in the recombinant cellular LRRK2 AlphaScreen assay (converted).
T1 construct: engineered to over-express recombinant full length LRRK2 protein; host or cells: SH-SY5Y human neuroblastoma cells transduced with BacMam LRRK2 virus
T1 sequence (Q5S007 whole entry): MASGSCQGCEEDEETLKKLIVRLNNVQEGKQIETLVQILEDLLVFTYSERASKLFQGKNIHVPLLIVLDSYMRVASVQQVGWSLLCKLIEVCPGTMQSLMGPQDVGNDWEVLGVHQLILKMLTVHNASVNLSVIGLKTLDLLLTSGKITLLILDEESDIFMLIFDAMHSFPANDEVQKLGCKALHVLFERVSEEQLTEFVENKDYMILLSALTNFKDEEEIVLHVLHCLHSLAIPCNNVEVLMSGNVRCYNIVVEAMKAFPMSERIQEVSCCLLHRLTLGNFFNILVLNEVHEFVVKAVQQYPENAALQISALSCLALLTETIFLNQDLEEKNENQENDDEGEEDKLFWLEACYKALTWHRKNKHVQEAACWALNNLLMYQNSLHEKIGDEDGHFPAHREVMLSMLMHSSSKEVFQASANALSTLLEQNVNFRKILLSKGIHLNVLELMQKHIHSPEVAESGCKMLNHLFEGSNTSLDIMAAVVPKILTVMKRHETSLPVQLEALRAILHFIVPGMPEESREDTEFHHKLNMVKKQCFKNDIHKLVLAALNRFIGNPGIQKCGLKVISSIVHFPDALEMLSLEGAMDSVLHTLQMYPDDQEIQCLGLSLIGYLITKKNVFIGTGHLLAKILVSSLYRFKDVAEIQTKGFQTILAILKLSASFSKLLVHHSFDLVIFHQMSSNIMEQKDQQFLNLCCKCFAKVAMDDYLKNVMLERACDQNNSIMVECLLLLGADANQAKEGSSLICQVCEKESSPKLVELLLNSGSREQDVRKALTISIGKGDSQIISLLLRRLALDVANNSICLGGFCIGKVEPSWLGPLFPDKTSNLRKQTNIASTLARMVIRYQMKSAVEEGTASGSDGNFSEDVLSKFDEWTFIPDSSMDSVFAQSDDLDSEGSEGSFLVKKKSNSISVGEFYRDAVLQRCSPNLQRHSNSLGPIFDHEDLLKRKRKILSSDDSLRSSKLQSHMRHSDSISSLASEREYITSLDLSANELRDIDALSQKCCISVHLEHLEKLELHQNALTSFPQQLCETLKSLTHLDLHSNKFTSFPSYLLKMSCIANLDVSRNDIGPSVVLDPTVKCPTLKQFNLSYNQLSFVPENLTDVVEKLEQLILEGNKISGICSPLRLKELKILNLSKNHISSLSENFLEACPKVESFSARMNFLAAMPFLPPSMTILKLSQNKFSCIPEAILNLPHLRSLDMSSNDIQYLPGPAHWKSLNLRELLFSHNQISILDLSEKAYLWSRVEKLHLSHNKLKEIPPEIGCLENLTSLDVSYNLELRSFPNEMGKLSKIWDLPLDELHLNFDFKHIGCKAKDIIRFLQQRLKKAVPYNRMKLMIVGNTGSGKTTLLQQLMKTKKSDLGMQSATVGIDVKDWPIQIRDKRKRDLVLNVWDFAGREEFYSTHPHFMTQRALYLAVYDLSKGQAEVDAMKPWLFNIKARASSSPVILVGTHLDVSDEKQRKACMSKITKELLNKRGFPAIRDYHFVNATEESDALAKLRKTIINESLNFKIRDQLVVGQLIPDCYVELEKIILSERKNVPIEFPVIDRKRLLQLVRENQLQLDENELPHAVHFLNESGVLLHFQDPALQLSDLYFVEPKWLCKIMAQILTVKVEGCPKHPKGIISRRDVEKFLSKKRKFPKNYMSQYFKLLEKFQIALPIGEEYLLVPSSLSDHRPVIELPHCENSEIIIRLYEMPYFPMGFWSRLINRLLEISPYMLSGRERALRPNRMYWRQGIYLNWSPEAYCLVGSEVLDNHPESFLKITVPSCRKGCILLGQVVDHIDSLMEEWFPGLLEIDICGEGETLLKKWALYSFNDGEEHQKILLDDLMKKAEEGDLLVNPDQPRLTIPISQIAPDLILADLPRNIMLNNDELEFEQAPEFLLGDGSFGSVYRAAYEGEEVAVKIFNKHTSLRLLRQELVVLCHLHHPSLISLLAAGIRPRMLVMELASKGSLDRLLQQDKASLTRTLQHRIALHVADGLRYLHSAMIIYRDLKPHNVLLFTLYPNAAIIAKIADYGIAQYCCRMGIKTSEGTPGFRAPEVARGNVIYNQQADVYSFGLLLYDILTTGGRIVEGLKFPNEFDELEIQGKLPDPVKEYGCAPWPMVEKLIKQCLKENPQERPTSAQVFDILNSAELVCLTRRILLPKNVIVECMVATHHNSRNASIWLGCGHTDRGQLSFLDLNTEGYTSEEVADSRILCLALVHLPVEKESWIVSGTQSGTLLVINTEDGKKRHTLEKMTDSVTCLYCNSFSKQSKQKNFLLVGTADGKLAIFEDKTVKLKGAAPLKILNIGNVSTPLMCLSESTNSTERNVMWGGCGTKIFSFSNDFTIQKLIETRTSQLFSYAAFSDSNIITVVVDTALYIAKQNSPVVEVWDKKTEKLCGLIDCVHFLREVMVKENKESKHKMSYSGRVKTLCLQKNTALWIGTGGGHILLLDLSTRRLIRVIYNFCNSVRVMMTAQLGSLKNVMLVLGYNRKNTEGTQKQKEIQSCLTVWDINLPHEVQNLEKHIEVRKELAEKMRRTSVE
Format: cell-based
Description: b. Recombinant Cellular LRRK2 AlphaScreen Assay
To determine the activity of compounds against LRRK2 kinase activity in cells, the observed LRRK2 kinase-dependent modulation of LRRK2 Ser 935 phosphorylation (Dzamko et al., 2010, Biochem. J. 430: 405-413) was utilized to develop a quantitative 384 well plate-based immunoassay of LRRK2 Ser935 phosphorylation in the human neuroblastoma cell line SH-SY5Y, engineered to over-express recombinant full length LRRK2 protein.
A BacMam virus expressing full length recombinant LRRK2 was purchased from Invitrogen and amplified by inoculation of SF-9 cells at MOI 0.3 for 4-5 days in Sf-900 III SFM medium supplemented with 3% fetal bovine serum. Infected cell cultures were then centrifuged at 2000 g for 20 minutes, viral supernatant titer determined by anti-gp64 plaque assay and stored at 4° C.
Affinity-purified anti-phospho LRRK2 Ser935 sheep polyclonal antibody (Dzamko et al., 2010, Biochem. J. 430: 405-413) was biotinylated by standard methods (PerkinElmer). Anti-LRRK2 rabbit polyclonal antibody was purchased from Novus Biologicals. AlphaScreen Protein A IgG Kit (including acceptor and donor beads) was purchased from Perkin Elmer. […]
Serial dilutions of test compounds were prepared in Opti-MEM reduced serum media (Invitrogen) and 5.6 ul transferred from compound plate to cell assay plate to achieve a top final assay concentration of 10 uM. […] 10 ul of antibody/acceptor bead mix [(1/1000 biotinylated-pS935 LRRK2 antibody, 1/1000 total-LRRK2 antibody, 1/100 Acceptor beads in AlphaScreen detection buffer (25 mM Hepes (pH 7.4), 0.5% Triton X-100, 1 mg/ml Dextran 500 and 0.1% BSA)] was then added to each well and plates incubated for 2 hours at ambient temperature in the dark. 10 μl of donor beads solution (1/33.3 donor beads in AlphaScreen detection buffer) was then added to each well. Following incubation for a further 2 hours at ambient temperature in the dark, plates were read on an EnVision™ plate reader at emission 520-620 nm with excitation 680 nm. […]
Compound `COc1nc(N2CCOCC2)cc(-n2ncc3cc(C)c(C4CCN(CCO)CC4F)cc32)n1` (single isomer, unassigned) [Example E1, 2-(3-fluoro-4-(1-(2-methoxy-6-morpholinopyrimidin-4-yl)-5-methyl-1H-indazol-6-yl)piperidin-1-yl)ethanol] has an IC50 of 5.01 nM. For `Cc1nc(N2CCO[C@@H](CO)C2)cc(-n2ncc3cc(C)c(C4CCN(CC(C)O)CC4F)cc32)n1` (single isomer, unassigned) [Example E29], the IC50 was 6.31 nM. Work on `COc1nc(N2CC(O)C2)cc(-n2ncc3cc(C)c(C4CCN(CCS(C)(=O)=O)CC4)cc32)n1` [Example E42, 1-(2-methoxy-6-(5-methyl-6-(1-(2-(methylsulfonyl)ethyl)piperidin-4-yl)-1H-indazol-1-yl)pyrimidin-4-yl)azetidin-3-ol] yielded an IC50 of 2 nM.
